Earlier results as cited in patent US20080274188A1, “Oral Vehicle For Systemic Pharmaceuticals” (priority 2005, published 2008).
Like-named read-outs stand apart in the source and are kept apart here.

Settings: for Solubility water: words

SMILES: COc1ccc2c3c1O[C@H]1[C@@H](O)C=C[C@H]4[C@@H](C2)N(C)CC[C@@]341 [Codeine phosphate]
- Solubility water (ml of water for 1 g) (temperature not stated, 1 g in the stated ml): 1 g in 2.5 ml water.

SMILES: C1CNCCN1 [Piperazine]
- Solubility water (temperature not stated): Freely soluble

SMILES: Cc1onc(-c2ccccc2Cl)c1C(=O)N[C@@H]1C(=O)N2[C@@H]1SC(C)(C)[C@@H]2C(=O)O [Cloxacillin, Cloxacillin (Na monohydrate)]
- Solubility water (temperature not stated): soluble

SMILES: CC(=O)Nc1ccc(O)cc1 [Acetaminophen]
- Solubility water (cold water): Cold-v slight
- Solubility water (hot water): Hot-considerably more
